Non-standard residues stand in square brackets, D forms with d. Residues, ends and D or L forms follow the SMILES beside them. ξ: configuration not given here. Met(O) = CS(=O)CC[C@H](N)C(=O)O; ξA = CC(N)C(=O)O; Sar = CNCC(=O)O
Target: Delta-type opioid receptor (Cavia porcellus)
Experiment: Evaluated for the inhibition of [3H]DADLE binding to Opioid receptor delta 1 of guinea pig brain

Compared with `COC(=O)CN(C)C(=O)[C@H](Cc1ccccc1)NC(=O)[C@H](CC[S+](C)[O-])NC(=O)[C@H](Cc1ccc(O)cc1)N=C(N)N` (stereo partly specified), `COC(=O)CN(C)C(=O)[C@H](Cc1ccccc1)NC(=O)[C@H](CC[S+](C)[O-])NC(=O)[C@@H](N)Cc1ccc(O)cc1` (stereo partly specified) (H-Y[Met(O)]F[Sar]-OMe) is 3.4-fold higher in IC50: 150 nM for the first, 510 nM for the second. The first is the more potent here.

Compared with `CC(NC(=O)[C@H](Cc1ccccc1)NC(=O)[C@H](CC[S+](C)[O-])NC(=O)[C@@H](N)Cc1ccc(O)cc1)C(N)=O` (stereo partly specified) (H-Y[Met(O)]F[ξA]-NH2), `CN(CC(N)=O)C(=O)[C@H](Cc1ccccc1)NC(=O)[C@H](CC[S+](C)[O-])NC(=O)[C@@H](N)Cc1ccc(O)cc1` (stereo partly specified) (H-Y[Met(O)]F[Sar]-NH2) is 2-fold lower in IC50: 900 nM for the first, 440 nM for the second.

Going from `CN(CC(=O)O)C(=O)[C@H](Cc1ccccc1)NC(=O)[C@H](CC[S+](C)[O-])NC(=O)[C@@H](N)Cc1ccc(O)cc1` (stereo partly specified) (H-Y[Met(O)]F[Sar]-OH) to `C[C@@H](NC(=O)[C@@H](N)Cc1ccc(O)cc1)C(=O)N[C@@H](Cc1ccccc1)C(=O)NCC(N)=O` (H-Y[dA]FG-NH2), the IC50 falls from 2120 nM to 818 nM (2.6-fold).

Reference: BindingDB's records for doi:10.1021/jm00392a002 (1987)
